Measured values as given in patent US10570179B2, “Substituted urea depsipeptide analogs as activators of the CLPP endopeptidase” (priority 2016, dated 2020).
Numbered stars: 1 amine (or outer) side, 2 acyl side, 3 side chain; on linkers, the order of the positions; unused ones are H or OH. Bridge positions count the residues as written; N and C are the ends. Square brackets hold non-standard residues; d marks the D form. Peptide text beside a SMILES is read from it. * marks the point of attachment. ξ: configuration not given here. Piperazine(2S-CO,4-Me) = CN1CCN[C@H](C(=O)O)C1; Phe(3,5-F2) = N[C@@H](Cc1cc(F)cc(F)c1)C(=O)O; Phe(3,5-Me2) = Cc1cc(C)cc(C[C@H](N)C(=O)O)c1; NH(1-Me-indolin-5-yl) = CN1CCc2cc(N*)ccc21; Morpholine(3S-CO) = O=C(O)[C@@H]1COCCN1; Phe(3-Me) = Cc1cccc(C[C@H](N)C(=O)O)c1; NH(4-Cl-2-F-phenyl) = Fc1cc(Cl)ccc1N*; Pro(4R-Me) = C[C@H]1CN[C@H](C(=O)O)C1; Hyp = O=C(O)[C@@H]1C[C@@H](O)CN1; NH(4-Me-phenyl) = Cc1ccc(N*)cc1; ξNMeThr = CNC(C(=O)O)[C@@H](C)O; aThr = C[C@H](O)[C@H](N)C(=O)O; Pip = O=C(O)[C@@H]1CCCCN1; CO = O=C([*:1])[*:2]

Experiment: Cytotoxicity assay (CellTiter-Glo cell viability)
Assay type: cell-based
Conditions: African green monkey
Procedure: Cytotoxicity was determined by determining the effect of compounds on cell viability. Vero (kidney epithelial cells; ATCC CCL-81) monolayers were trypsinized and 5000 cells/well were seeded (10-15% confluency) into white-wall, flat bottom 96 well microwell plates (Corning) using enriched Dulbecco's Modified Eagle's Medium (Hyclone: DMEM/High Glucose) containing 10% Fetal Bovine Serum (ATCC-30-2020). Plates were incubated overnight at 37° C. in the presence of 5% CO2. Drug-free media was then replaced with media containing serial dilutions of test compound or DMSO carrier. After an additional 72 hours of incubation, viability was indirectly measured using the CellTiter-Glo® Luminescent Cell Viability (Promega) assay. Assay plates were read at peak emission wavelength of 560 nm using a EnVision® Multilabel Plate Reader (Perkin Elmer) or PHERAstar FS Multilabel reader (BMG, Cary, N.C.). The concentration of test compounds that inhibited growth by 50% (IC50 value) was computed using nonlinear regression based fitting of inhibition curves using log [inhibitor] vs. response-variable slope (four parameters)—symmetrical equation, in GraphPad Prism version 6 [GraphPad Software, La Jolla, Calif. USA, www.graphpad.com]. For each experiment, compounds were tested in duplicate. IC50 values presented are the range of two biologically independent experiments.

Row | Compound | IC50 at 72 h [µM]
1 | Cc1cc(C)cc(C[C@H](NC(=O)Nc2ccc(Cl)cc2F)C(=O)N[C@@H]2C(=O)N3CCC[C@H]3C(=O)N3CCCC[C@H]3C(=O)N[C@@H](C)C(=O)N3C[C@H](C)C[C@H]3C(=O)O[C@H]2C)c1 [Compound 4, (S)-2-(3-(4-CHLORO-2-FLUOROPHENYL)UREIDO)-3-(3,5-DIMETHYLPHENYL)-N-((2R,6S,8AS,14AS,20S,21S,23AS)-2,6,21-TRIMETHYL-5,8,14,19,23-PENTAOXOOCTADECAHYDRO-1H,5H,14H,19H-PYRIDO[2,1-I]DIPYRROLO[2,1-C:2′,1′-L][1]OXA[4,7,10,13]TETRAAZACYCLOHEXADECIN-20-YL)PROPANAMIDE] ({NH(4-Cl-2-F-phenyl)-CO}-[Phe(3,5-Me2)][aThr]P[Pip]A[Pro(4R-Me)]; ester 2-C) | 11 ± 1.9
2 | Cc1cccc(C[C@H](NC(=O)Nc2ccc(Cl)cc2F)C(=O)N[C@@H]2C(=O)N3CCC[C@H]3C(=O)N(C)C([C@@H](C)O)C(=O)N[C@@H](C)C(=O)N3C[C@H](C)C[C@H]3C(=O)O[C@H]2C)c1 (stereo partly drawn) [Compound 5] ({NH(4-Cl-2-F-phenyl)-CO}-[Phe(3-Me)][aThr]P[ξNMeThr]A[Pro(4R-Me)]; ester 2-C) | > 10
3 | Cc1cccc(C[C@H](NC(=O)Nc2ccc(Cl)cc2F)C(=O)N[C@@H]2C(=O)N3C[C@H](O)C[C@H]3C(=O)N3CCCC[C@H]3C(=O)N[C@@H](C)C(=O)N3C[C@H](C)C[C@H]3C(=O)O[C@H]2C)c1 [Compound 6, (S)-2-(3-(4-CHLORO-2-FLUOROPHENYL)UREIDO)-N-((2R,6S,8AS,14AS,16R,20S,21S,23AS)-16-HYDROXY-2,6,21-TRIMETHYL-5,8,14,19,23-PENTAOXOOCTADECAHYDRO-1H,5H,14H,19H-PYRIDO[2,1-I]DIPYRROLO[2,1-C:2′,1′-L][1]OXA[4,7,10,13]TETRAAZACYCLOHEXADECIN-20-YL)-3-(M-TOLYL)PROPANAMIDE] ({NH(4-Cl-2-F-phenyl)-CO}-[Phe(3-Me)][aThr][Hyp][Pip]A[Pro(4R-Me)]; ester 2-C) | 50.5 ± 3.8
4 | Cc1cccc(C[C@H](NC(=O)Nc2ccc(Cl)cc2F)C(=O)N[C@H]2COC(=O)[C@@H]3C[C@@H](C)CN3C(=O)[C@H](C)NC(=O)[C@@H]3CCCCN3C(=O)[C@@H]3CCCN3C2=O)c1 [Compound 8, (S)-2-(3-(4-CHLORO-2-FLUOROPHENYL)UREIDO)-N-((2R,6S,8AS,14AS,20S,23AS)-2,6-DIMETHYL-5,8,14,19,23-PENTAOXOOCTADECAHYDRO-1H,5H,14H,19H-PYRIDO[2,1-I]DIPYRROLO[2,1-C:2′,1′-L][1]OXA[4,7,10,13]TETRAAZACYCLOHEXADECIN-20-YL)-3-(M-TOLYL)PROPANAMIDE] | > 10
5 | Cc1cccc(C[C@H](NC(=O)Nc2ccc(Cl)cc2F)C(=O)N[C@H]2COC(=O)[C@@H]3C[C@@H](C)CN3C(=O)[C@H](C)NC(=O)[C@@H]3CCCCN3C(=O)[C@@H]3C[C@@H](O)CN3C2=O)c1 [Compound 10] | > 50
6 | Cc1cccc(C[C@H](NC(=O)Nc2ccc(Cl)cc2F)C(=O)N[C@@H]2C(=O)N3CCC[C@H]3C(=O)N3CCN(C)C[C@H]3C(=O)N[C@@H](C)C(=O)N3C[C@H](C)C[C@H]3C(=O)O[C@H]2C)c1 [Compound 11, (S)-2-(3-(4-CHLORO-2-FLUOROPHENYL)UREIDO)-N-((6AS,12S,13S,15AS,17R,21S,23AS)-2,13,17,21-TETRAMETHYL-6,11,15,20,23-PENTAOXOOCTADECAHYDRO-2H,6H,11H,15H-PYRAZINO[2,1-I]DIPYRROLO[2,1-C:2′,1′-L][1]OXA[4,7,10,13]TETRAAZACYCLOHEXADECIN-12-YL)-3-(M-TOLYL)PROPANAMIDE] ({NH(4-Cl-2-F-phenyl)-CO}-[Phe(3-Me)][aThr]P[Piperazine(2S-CO,4-Me)]A[Pro(4R-Me)]; ester 2-C) | > 10
7 | Cc1cccc(C[C@H](NC(=O)Nc2ccc(Cl)cc2F)C(=O)N[C@H]2COC(=O)[C@@H]3C[C@@H](C)CN3C(=O)[C@H](C)NC(=O)[C@@H]3CCCCN3C(=O)[C@@H]3C[C@H](N)CN3C2=O)c1 [Compound 12, (S)—N-((2R,6S,8AS,14AS,16S,20S,23AS)-16-AMINO-2,6-DIMETHYL-5,8,14,19,23-PENTAOXOOCTADECAHYDRO-1H,5H,14H,19H-PYRIDO[2,1-I]DIPYRROLO[2,1-C:2′,1′-L][1]OXA[4,7,10,13]TETRAAZACYCLOHEXADECIN-20-YL)-2-(3-(4-CHLORO-2-FLUOROPHENYL)UREIDO)-3-(M-TOLYL)PROPANAMIDE] | > 50
8 | C[C@@H]1C[C@H]2C(=O)OC[C@H](NC(=O)[C@H](Cc3cc(F)cc(F)c3)NC(=O)Nc3ccc(Cl)cc3F)C(=O)N3CCC[C@H]3C(=O)N3CCN(C)C[C@H]3C(=O)N[C@@H](C)C(=O)N2C1 [Compound 34] ({NH(4-Cl-2-F-phenyl)-CO}-[Phe(3,5-F2)]SP[Piperazine(2S-CO,4-Me)]A[Pro(4R-Me)]; ester 2-C) | > 50

Same assay, conditions: African green monkey; Vero cells, 72 hours; read-out: Cytotoxicity IC50

Row | Compound | IC50 at 72 h [µM]
9 | Cc1ccc(NC(=O)N[C@@H](Cc2cccc(C)c2)C(=O)N[C@@H]2C(=O)N3CCC[C@H]3C(=O)N3CCCC[C@H]3C(=O)N[C@@H](C)C(=O)N3C[C@H](C)C[C@H]3C(=O)O[C@H]2C)cc1 [Compound 1, (S)-3-(M-TOLYL)-2-(3-(P-TOLYL)UREIDO)-N-((2R,6S,8AS,14AS,20S,21S,23AS)-2,6,21-TRIMETHYL-5,8,14,19,23-PENTAOXOOCTADECAHYDRO-1H,5H,14H,19H-PYRIDO[2,1-I]DIPYRROLO[2,1-C:2′,1′-L][1]OXA[4,7,10,13]TETRAAZACYCLOHEXADECIN-20-YL)PROPANAMIDE] ({NH(4-Me-phenyl)-CO}-[Phe(3-Me)][aThr]P[Pip]A[Pro(4R-Me)]; ester 2-C) | 1.59 ± 0.08
10 | Cc1ccc(NC(=O)N[C@@H](Cc2cc(C)cc(C)c2)C(=O)N[C@@H]2C(=O)N3CCC[C@H]3C(=O)N3CCCC[C@H]3C(=O)N[C@@H](C)C(=O)N3C[C@H](C)C[C@H]3C(=O)O[C@H]2C)cc1 [Compound 2, (S)-3-(3,5-DIMETHYLPHENYL)-2-(3-(P-TOLYL)UREIDO)-N-((2R,6S,8AS,14AS,20S,21S,23AS)-2,6,21-TRIMETHYL-5,8,14,19,23-PENTAOXOOCTADECAHYDRO-1H,5H,14H,19H-PYRIDO[2,1-I]DIPYRROLO[2,1-C:2′,1′-L][1]OXA[4,7,10,13]TETRAAZACYCLOHEXADECIN-20-YL)PROPANAMIDE] ({NH(4-Me-phenyl)-CO}-[Phe(3,5-Me2)][aThr]P[Pip]A[Pro(4R-Me)]; ester 2-C) | > 100
11 | C[C@@H]1C[C@H]2C(=O)O[C@@H](C)[C@H](NC(=O)[C@H](Cc3cc(F)cc(F)c3)NC(=O)Nc3ccc4c(c3)CCN4C)C(=O)N3CCC[C@H]3C(=O)N3CCOC[C@H]3C(=O)N[C@@H](C)C(=O)N2C1 [Compound 32] ({NH(1-Me-indolin-5-yl)-CO}-[Phe(3,5-F2)][aThr]P[Morpholine(3S-CO)]A[Pro(4R-Me)]; ester 2-C) | 2.87
